Experimental data: US20160166638A1, “LACTOFERRIN-OSTEOPONTIN-IRON COMPLEX” (NESTEC S.A., priority 2013, published 2016)

Test: Colour change of iron fortified strawberry-banana yoghurt after flash pasteurization (CIELAB colorimetry)
Format: physicochemical
Conditions: colour difference vs yoghurt with no iron salts; Jogolino Strawberry/Banana yoghurt, approx. 0.8 mg iron per 100 g; flash pasteurized at 105° C. for 2 minutes
Experimental: Commercial yoghurt, Nestlé Jogolino™ Strawberry/Banana yoghurt containing 15% banana puree and 10% strawberry puree, was iron fortified by the addition of different iron containing materials to 5 kg yoghurt as reported in the table below. The amounts were chosen to provide approximately 0.8 mg iron per 100 g yoghurt. A 100 g serving of yoghurt with that level of iron would provide 15% of the recommended daily amount of iron for an infant [Official Journal of the European Union, Commission Directive 2006/125/EC].
For the lactoferrin-osteopontin-iron complex (Trial B), the powder from Example 1 was added to yoghurt at a level of 28 g per 5 kg yoghurt. The resulting yoghurt composition comprised 5.6 g powder per kg which is 4 g LF-OPN-Fe complex per kg.
The yoghurts were flash pasteurized at 105° C. for 2 minutes. Colour measurements were performed in 1×1 cm polystyrene cuvettes using an X-Rite ColorEye 7000A colorimeter. The colorimeter was set up with a D65 light source, 10 degree observer angle and with specular component included. The colour difference between the yoghurt with no iron salts and the iron fortified yoghurt was measured for each iron salt and expressed as ΔEab* using the CIELAB colour scale.

ΔEab* | Structure (SMILES)
4.74 | O.O=S(=O)([O-])[O-].[Fe+2] [FeSO4 × H2O]
3.11 | O.O=C([O-])CN(CCN(CC(=O)[O-])CC(=O)[O-])CC(=O)[O-].[Fe+3].[Na+] [NaFeEDTA × H2O]
